Assay results from patent US8012945B2, “Phage antibodies to radiation-inducible neoantigens” (Vanderbilt University, priority 2001, dated 2011).

Experiments:
[1] = test system: irradiated tumors (LLC and GL261); assay: In vivo screening of T7 phage peptide library, LLC and GL261 tumors pooled; design: species or system mice; conditions: for Frequency of Recovery: conserved motifs within peptides identified by in vivo screening
Method: GL261 murine glioma cells and Lewis lung carcinoma cells were implanted into the hind limb of C57BL6 mice (Hallahan et al., 1995b; Hallahan et al., 1998; Hallahan & Virudachalam, 1999).
For in vivo screening, tumors were irradiated with 3 Gy and approximately 10^10 phage (prepared as described in Example 4) were administered by tail vein injection into each of the tumor bearing mice at 4 hours following irradiation. Tumors were recovered at one hour following injection and amplified in BL21 bacteria. Amplified phage were pooled and re-administered to a tumor-bearing mouse following tumor irradiation. The phage pool was sequentially administered to a total of 6 animals. As a control, wild type phage lacking synthetic peptide inserts were identically administered to a second experimental group of animals.
To determine the titer of phage binding in a tumor or in normal tissue, recovered phage were amplified in BL21 bacteria. Bacteria were plated and the number of plaques present were counted. To determine the total phage output per organ, the number of plaque forming units (PFU) on each plate was divided by the volume of phage plated and the weight of each organ.
An individual phage suspension was used as template. Amplified peptides were sequenced using an ABI PRISM 377 sequencer (PE Biosystems, Foster City, Calif., United States of America).

LLC tumors = assay: In vivo screening of T7 phage peptide library, irradiated LLC tumors; design: species or system mice; conditions: 3 Gy, 6 rounds of in vivo screening; for Number of Phage Recovered from LLC tumors: randomly selected phage
Method: (§1) A population of DNA fragments encoding recombinant peptide sequences was cloned into the T7 […] vector (Novagen, Madison, Wis., United States of America). […] The resulting reading frame requires an AAT initial codon followed by a TCX codon. The molar ratio between insert and vector was 1:1. Size-fractionated cDNA inserts were prepared by gel filtration on sepharose 4B and ranged from 27 base pairs to 33 base pairs. cDNAs were ligated by use of the DNA ligation kit (Novagen, Madison, Wis., United States of America). Recombinant T7 DNA was packaged according to the manufacturer's instructions and amplified prior to bioscreening in animal tumor models. […] GL261 murine glioma cells and Lewis lung carcinoma cells were implanted into the hind limb of C57BL6 mice ([…] et al., 1995[…] et al., 1998; […], 1999). […] Tumors were recovered at one hour following injection and amplified in BL21 bacteria. Amplified phage were pooled and re-administered to a tumor-bearing mouse following tumor irradiation. The phage pool was sequentially administered to a total of 6 animals. […] To determine the titer of phage binding in a tumor or in normal tissue, recovered phage were amplified in BL21 bacteria. Bacteria were plated and the number of plaques present were counted. To determine the total phage output per organ, the number of plaque forming units (PFU) on each plate was divided by the volume of phage plated and the weight of each organ. […] Following 6 rounds of in vivo screening, fifty recombinant phage peptides that bound within irradiated tumors were randomly selected for further analysis. The nucleic acid sequence encoding recombinant phage was amplified by PCR using primers set forth as SEQ ID NOs: 14-15 (available from Novagen, Madison, Wis., United States of America). An individual phage suspension was used as template. Amplified peptides were sequenced using an ABI PRISM 377 sequencer (PE Biosystems, Foster City, Calif., United States of America).

GL261 tumors = assay: In vivo screening of T7 phage peptide library, irradiated GL261 tumors; design: species or system mice; conditions: 3 Gy, 6 rounds of in vivo screening; for Number of Phage Recovered from GL261 tumors: randomly selected phage
Method: as §1

[2] = test system: melanoma, lung carcinoma, and glioma tumor models; assay: Binding of peptide-encoding phage in additional tumor models; type: in vivo, mice; conditions: B16F0 melanoma, Lewis lung carcinoma, GL261 glioma
Source text: The binding properties of phage encoding […] (SEQ ID NO: 1), […] (SEQ ID NO: 2), […] (SEQ ID NO: 3), and NSVGSRV (SEQ ID NO: 4) were additionally characterized in a B16F0 melanoma model.

[3] = test system: P-selectin and platelet membrane glycoprotein IIB; assay: Screening of phage-displayed scFv library on immobilized neoantigens, Western immunoblot, then in vivo screening of irradiated tumors; type: binding; conditions: recovered following in vivo screening to irradiated tumors
Method: A phage library comprising diverse single chain antibodies was prepared in M13 phage. Briefly, nucleotide sequences encoding antibody VL and VH regions separated by a (Gly4Ser)3 linker were fused to M13 gene III nucleotide sequences. When a recombinant M13 carrying these antibody-gene III fusions infects an appropriate host bacterium, the host produces recombinant M13 phage that display scFv antibody polypeptides (VL-linker-VH) fused to gene III protein.
The phage library was exposed to the radiation-inducible neoantigens P-selectin (also called CD62P; GENBANK™ Accession No. P98109) and/or platelet membrane glycoprotein IIB (also called CD41; GENBANK™ Accession No. P08514) immobilized on glass slides. Phage were selected based on antigen binding, and selected phage were pooled as a biased library. For representative in vitro screening methods, see Fowlkes et al., 1992; Haaparanta & Huse, 1995; Jung & Pluckthun, 1997; Peter et al., 2000; Holzem et al., 2001; Chiu et al., 2000.
Phage identified by in vitro screening were tested on Western immunoblots to confirm binding to the P-selection and platelet membrane glycoprotein IIB neoantigens. Phage that specifically bound P-selectin and platelet membrane glycoprotein IIB were subsequently used for in vivo screening of irradiated tumors as described in Example 5. Wild type phage were used as internal controls. Antibodies having substantial affinity for irradiated tumors were identified by observing an increased number of phage in the irradiated tumor when compared to a number of phage in a control organ (e.g., liver and lung). Phage antibodies with the greatest affinity for tumors were identified using the formula: number of phage in irradiated tumor/number of phage in each organ.

GSRV (Artificial peptide ligand number 7)
share of peptide sequences recovered from 6 irradiated tumors having the subsequence ([1]; mouse, in vivo): 4%

GSSV (Artificial peptide ligand number 13)
Frequency of Recovery [1]: 56% | phage recovered from irradiated tumors ([1]; mouse, in vivo): 22-40 of 10^6 injected phage | share of peptide sequences recovered from 6 irradiated tumors having the subsequence ([1]; mouse, in vivo): 56%

GSXV [conserved motif within recovered peptides]
Frequency of Recovery [1]: 78%

NHVGGSSV (Artifical peptide ligand number 1)
Phage Recovered from LLC tumors (Frequency) (LLC tumors): 28% | Number of Phage Recovered from LLC tumors (LLC tumors): 7 | Phage Recovered from GL261 tumors (Frequency) (GL261 tumors): 48% | Number of Phage Recovered from GL261 tumors (GL261 tumors): 12 | binding of phage encoding the peptide within tumor models [2]: bound within the melanoma, lung carcinoma, and glioma tumor models

NSLRGDGSSV (phage-displayed; Artificial peptide ligand number 2)
Phage Recovered from LLC tumors (Frequency) (LLC tumors): 28% | Number of Phage Recovered from LLC tumors (LLC tumors): 7 | Phage Recovered from GL261 tumors (Frequency) (GL261 tumors): 8% | Number of Phage Recovered from GL261 tumors (GL261 tumors): 2 | binding of phage encoding the peptide within tumor models [2]: bound within the melanoma, lung carcinoma, and glioma tumor models

NSV (Artificial peptide ligand number 10) [conserved motif within recovered peptides]
Frequency of Recovery [1]: 22%

NSVGSRV (Artificial peptide ligand number 4)
Phage Recovered from LLC tumors (Frequency) (LLC tumors): 4% | Number of Phage Recovered from LLC tumors (LLC tumors): 1 | Phage Recovered from GL261 tumors (Frequency) (GL261 tumors): 12% | Number of Phage Recovered from GL261 tumors (GL261 tumors): 3 | binding of phage encoding the peptide within tumor models [2]: bound within lung carcinoma and glioma

NSVRGSGSGV (Artificial peptide ligand number 3)
Phage Recovered from LLC tumors (Frequency) (LLC tumors): 28% | Number of Phage Recovered from LLC tumors (LLC tumors): 7 | Number of Phage Recovered from GL261 tumors (GL261 tumors): 0 | binding of phage encoding the peptide within tumor models [2]: bound within glioma and melanoma

NSXR [conserved motif within recovered peptides]
Frequency of Recovery [1]: 32%

NSXRGXGS [conserved motif within recovered peptides]
Frequency of Recovery [1]: 32%

NXVG [conserved motif within recovered peptides]
Frequency of Recovery [1]: 46%

RGDGSSV (Artificial peptide ligand number 6)
share of peptide sequences recovered from 6 irradiated tumors having the subsequence ([1]; mouse, in vivo): 18%

B1: SEQ ID NO: 24: scFv antibody encoded by SEQ ID NO: 23 (protein)
scFv: MAQVKLQQSGPELVKPGASVKMSCKASGYTFTSYVMHWVKQSNGKSLEWIGTIDPYYGGTSYNQKFKGKATLTVDKSSTTAYIQLKSLTSEDSAVYYCARWDGYYGGFSYWGQGTMVTVSSGGGGSGGGGSGGGGSDIELTQSPAIMSATLGEKVTMSCRASSNVKYMYWYQQKSGASPKLWIYYTSNLASGVPARFSGSGSGTSYSLTISSVEAEDAATYYCQQFTSSPYTFGSGTKLEIKRAAAGAPVPYPDPLEPRAA
modifications: nucleic acid encoding scFv antibody 10A
neoantigen recognition [3]: recognize the radiation-inducible neoantigens P-selectin and platelet membrane glycoprotein IIB

B2: SEQ ID NO: 18: scFv antibody encoded by SEQ ID NO: 17 (protein)
scFv: MAQVKLQQSGAELVMPGASVKMSCKASGYTFTDYWMHWVKQRPGQGLEWIGAIDTSDSYTSYNQKFKGKATLTVDESSSTAYMQLSSLTSEDSAVYYCARRGYYSAFDYWGQGTTVTVSSGGGGSGGGGSGGGGSDIELTQSPTTMAASPGEKVTITCRASSSVSYMHWFQQKSGTSPKPWIYDTSKLASGVPDRFSGSGSGTSYSLTISSMEAEDAATYYCLQRSSYPYTFGAGTKLEIKR
modifications: Artificial antibody ligand number 1
neoantigen recognition [3]: recognize the radiation-inducible neoantigens P-selectin and platelet membrane glycoprotein IIB

B3: SEQ ID NO: 22: scFv antibody encoded by SEQ ID NO: 21 (protein)
scFv: MAQVQLQESGPGLVKPSQSLSLTCSVTGYSITSNYWGWIRKFPGNKMEWMGYISYSGSTSYNPSLKSRISITRDTSKNQLFLQLNSVTTEDTATYYCARYSLFNYGRRDYVMDAWGQGTTVTVSSGGGGSGGGGSGGGGSDIELTQSPATMAASPGEKVTITCRASSTVSYMHWFQQKPGASPKPWIYDTSKLASGVPDRFSGSGSGTDFTLTIDPVQADDIATYYCQQSKDDPRTFGGGTKLELKRRPQVRRCRIRIRWNRVPH
modifications: Nucleic acid encoding scFv antibody 4A
neoantigen recognition [3]: recognize the radiation-inducible neoantigens P-selectin and platelet membrane glycoprotein IIB

B4: SEQ ID NO: 20: scFv antibody encoded by SEQ ID NO: 19 (protein)
scFv: MAQVKLQQSGPELVKPGASVKMSCKASGYTFTSYVMHWVKQKPGQGLEWIGYINPYNDGTKYNEKFKGKAALTSDKSSSTAYMELSSLTSEDSAVYYCARFGNYGALDYWGQGTTVTVSSGGGGSGGGGSGGGGSDIELTQSPTIMSASPGEKVTITCSASSSVSYMHWFQQKPGTSPKPWIYGTSNLASGVPVRFSGSGSGTSYSLTISSMEAEDAATYYCQQWSSYPLTFGGGTKLEIKR
modifications: Artificial antibody ligand number 2
neoantigen recognition [3]: recognize the radiation-inducible neoantigens P-selectin and platelet membrane glycoprotein IIB
